#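 Five concentrations, 48 hours, 96-well plates. GI50 = concentration required for 50% inhibition of growth.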 The source made the active and inactive calls. No stated cut-off is given here; in the data, active = GI50 up to about 1.1 µM and inactive = higher. Where a SMILES comes first, the peptide text is derived from it. The star is where a group is joined. Fmoc = O=C(OCC1c2ccccc2-c2ccccc21)*; OtBu = CC(C)(C)O*
# How the values were obtained:
# Test in all cases: NCI-60 cell line screen, 48 h
# CAKI-1 = test system: CAKI-1
# COLO 205 = test system: COLO 205
# EKVX = test system: EKVX
# HOP-92 = test system: HOP-92
# HT-29 = test system: HT-29
# IGROV-1 = test system: IGROV-1
# M14 = test system: M14
# Malme-3M = test system: Malme-3M
# NCI-H226 = test system: NCI-H226
# NCI-H522 = test system: NCI-H522
# OVCAR-4 = test system: OVCAR-4
# OVCAR-5 = test system: OVCAR-5
# SF-539 = test system: SF-539
# SK-MEL-2 = test system: SK-MEL-2
# SK-MEL-5 = test system: SK-MEL-5
# SK-OV-3 = test system: SK-OV-3
# SNB-75 = test system: SNB-75
# SW-620 = test system: SW-620
# TK-10 = test system: TK-10
# HCC 2998 = test system: HCC 2998
SMILES,GI50 (CAKI-1),GI50 (COLO 205),GI50 (EKVX),GI50 (HOP-92),GI50 (HT-29),GI50 (IGROV-1),GI50 (M14),GI50 (Malme-3M),GI50 (NCI-H226),GI50 (NCI-H522),GI50 (OVCAR-4),GI50 (OVCAR-5),GI50 (SF-539),GI50 (SK-MEL-2),GI50 (SK-MEL-5),GI50 (SK-OV-3),GI50 (SNB-75),GI50 (SW-620),GI50 (TK-10),GI50 (HCC 2998)
O=c1[nH]cnc2sc(=S)c3c(c12)CCC3,19.3 µM (inactive),14.4 µM (inactive),47.6 µM (inactive),23.8 µM (inactive),35.2 µM (inactive),15.8 µM (inactive),34.2 µM (inactive),37.2 µM (inactive),20.8 µM (inactive),15.9 µM (inactive),33.5 µM (inactive),47.8 µM (inactive),> 100 µM (inactive),> 100 µM (inactive),17.8 µM (inactive),> 100 µM (inactive),> 100 µM (inactive),21.6 µM (inactive),25.2 µM (inactive),
CCN1CCCCC(=N\O)/C(=N/O)CCCC1,> 100 µM (inactive),> 100 µM (inactive),26.1 µM (inactive),> 100 µM (inactive),> 100 µM (inactive),> 100 µM (inactive),> 100 µM (inactive),> 100 µM (inactive),> 100 µM (inactive),> 100 µM (inactive),> 100 µM (inactive),> 100 µM (inactive),> 100 µM (inactive),> 100 µM (inactive),> 100 µM (inactive),> 100 µM (inactive),> 100 µM (inactive),> 100 µM (inactive),> 100 µM (inactive),
Cc1cc(C)c(C2=NO[C@@H]3[C@H]2C(=O)C=C2N(Cc4ccccc4)CCO[C@@]23O)c(C)c1,1 µM (active),> 100 µM (inactive),> 100 µM (inactive),> 100 µM (inactive),> 100 µM (inactive),> 100 µM (inactive),,> 100 µM (inactive),> 100 µM (inactive),> 100 µM (inactive),> 100 µM (inactive),> 100 µM (inactive),> 100 µM (inactive),> 100 µM (inactive),> 100 µM (inactive),> 100 µM (inactive),> 94.2 µM (inactive),> 100 µM (inactive),,> 100 µM (inactive)
O=[S@@]1Nc2ccc(Br)cc2S1,1.15 µM (inactive),,41.6 µM (inactive),> 100 µM (inactive),2.13 µM (inactive),53 µM (inactive),1.4 µM (inactive),97.3 µM (inactive),> 100 µM (inactive),0.887 µM (active),,,3.94 µM (inactive),4.67 µM (inactive),12.6 µM (inactive),22.5 µM (inactive),> 100 µM (inactive),0.74 µM (active),2.79 µM (inactive),
OCC1C2C=CC(O2)[C@H]1CO (stereo partly specified),> 100 µM (inactive),> 100 µM (inactive),> 100 µM (inactive),> 100 µM (inactive),79.6 µM (inactive),> 100 µM (inactive),> 100 µM (inactive),> 100 µM (inactive),> 100 µM (inactive),> 100 µM (inactive),> 100 µM (inactive),> 100 µM (inactive),> 100 µM (inactive),,> 100 µM (inactive),> 100 µM (inactive),> 100 µM (inactive),> 100 µM (inactive),> 100 µM (inactive),> 100 µM (inactive)
N#C[C@@H](c1nc2ccccc2s1)c1ncccc1[N+](=O)[O-],19 µM (inactive),4.31 µM (inactive),5.89 µM (inactive),1.32 µM (inactive),8.3 µM (inactive),5.07 µM (inactive),8.22 µM (inactive),2.87 µM (inactive),5.55 µM (inactive),2.51 µM (inactive),7.91 µM (inactive),11.9 µM (inactive),,4.12 µM (inactive),3.24 µM (inactive),16.6 µM (inactive),13.9 µM (inactive),> 10 µM (inactive),4.79 µM (inactive),10.6 µM (inactive)
O=C(O)c1ccc(Nc2nc3ccccc3nc2-c2cccs2)cc1,63.5 µM (inactive),> 100 µM (inactive),92.5 µM (inactive),68.2 µM (inactive),66.4 µM (inactive),73.5 µM (inactive),,60.3 µM (inactive),> 100 µM (inactive),91.4 µM (inactive),41.8 µM (inactive),> 100 µM (inactive),> 100 µM (inactive),,> 100 µM (inactive),> 100 µM (inactive),66.1 µM (inactive),> 100 µM (inactive),> 100 µM (inactive),> 100 µM (inactive)
CCOCc1cc(=O)c2c(O)cc3c(c2o1)CCC(C)(C)O3,> 100 µM (inactive),> 100 µM (inactive),> 100 µM (inactive),4.86 µM (inactive),> 100 µM (inactive),> 100 µM (inactive),> 100 µM (inactive),> 100 µM (inactive),> 100 µM (inactive),> 100 µM (inactive),,,> 100 µM (inactive),> 100 µM (inactive),> 100 µM (inactive),> 100 µM (inactive),> 100 µM (inactive),> 100 µM (inactive),> 100 µM (inactive),
COC(=O)/C=C\n1nc(Br)c(=O)[nH]c1=O,> 100 µM (inactive),> 100 µM (inactive),> 100 µM (inactive),> 100 µM (inactive),> 100 µM (inactive),> 100 µM (inactive),> 100 µM (inactive),> 100 µM (inactive),,35.1 µM (inactive),> 100 µM (inactive),> 100 µM (inactive),> 100 µM (inactive),> 100 µM (inactive),> 100 µM (inactive),,> 100 µM (inactive),> 100 µM (inactive),> 100 µM (inactive),> 100 µM (inactive)
CC1CC=CC(O)C1 (stereo unspecified),,> 100 µM (inactive),> 100 µM (inactive),> 100 µM (inactive),> 100 µM (inactive),> 100 µM (inactive),,> 100 µM (inactive),> 100 µM (inactive),> 100 µM (inactive),> 100 µM (inactive),> 100 µM (inactive),> 100 µM (inactive),> 100 µM (inactive),> 100 µM (inactive),> 100 µM (inactive),> 93.5 µM (inactive),> 100 µM (inactive),,> 100 µM (inactive)
CN(C)CCNC(=O)c1ccc(Cl)c2ccc(-c3ccccc3)nc12,2.69 µM (inactive),1.61 µM (inactive),,2.02 µM (inactive),2.77 µM (inactive),3.48 µM (inactive),,3.52 µM (inactive),2.32 µM (inactive),3.89 µM (inactive),3.54 µM (inactive),3.49 µM (inactive),3.66 µM (inactive),7.67 µM (inactive),1.95 µM (inactive),4.7 µM (inactive),3.57 µM (inactive),2.19 µM (inactive),,4.67 µM (inactive)
COc1ccc(CNc2nc(NCc3ccc(OC)c(OC)c3)nc(NC3CCCCC3)n2)cc1,3.17 µM (inactive),2.34 µM (inactive),10.4 µM (inactive),> 100 µM (inactive),2.88 µM (inactive),4.49 µM (inactive),4.61 µM (inactive),37.2 µM (inactive),6.55 µM (inactive),1.69 µM (inactive),9.06 µM (inactive),4.88 µM (inactive),2.29 µM (inactive),4.26 µM (inactive),0.716 µM (active),> 100 µM (inactive),3.38 µM (inactive),2.89 µM (inactive),18.5 µM (inactive),
CC(C)C(NC(=O)OCC1c2ccccc2-c2ccccc21)C(=O)NC(CCC(=O)OC(C)(C)C)C(=O)OC(C)(C)C (stereo unspecified) (Fmoc-Val-Glu(OtBu)-OtBu; configuration not given here),> 100 µM (inactive),> 31.6 µM (inactive),> 100 µM (inactive),> 42 µM (inactive),> 100 µM (inactive),> 100 µM (inactive),> 100 µM (inactive),> 100 µM (inactive),> 100 µM (inactive),> 45.1 µM (inactive),12.8 µM (inactive),> 100 µM (inactive),24.1 µM (inactive),,7.69 µM (inactive),> 100 µM (inactive),> 46.9 µM (inactive),> 71.4 µM (inactive),> 100 µM (inactive),> 100 µM (inactive)
O=C(Nc1ccc(F)cc1)C(=O)C(C(=O)c1ccccc1F)C1OC(=O)c2ccccc21 (stereo unspecified),> 100 µM (inactive),48.1 µM (inactive),68.4 µM (inactive),> 100 µM (inactive),52.6 µM (inactive),> 100 µM (inactive),> 100 µM (inactive),,21.4 µM (inactive),15 µM (inactive),55.3 µM (inactive),> 100 µM (inactive),31 µM (inactive),54.1 µM (inactive),> 100 µM (inactive),66.5 µM (inactive),43.7 µM (inactive),58.6 µM (inactive),> 100 µM (inactive),38.5 µM (inactive)
COc1cc(S(=O)(=O)Nc2ccc(-c3csc(N4C(=O)C(C)SC4c4cccc(Oc5ccccc5)c4)n3)cc2)ccc1Cl (stereo unspecified),46 µM (inactive),27.7 µM (inactive),53.2 µM (inactive),32.7 µM (inactive),35.4 µM (inactive),39 µM (inactive),34.7 µM (inactive),> 100 µM (inactive),27.1 µM (inactive),29.8 µM (inactive),,83.2 µM (inactive),27.6 µM (inactive),86.9 µM (inactive),27.5 µM (inactive),52.6 µM (inactive),52.1 µM (inactive),59 µM (inactive),,
